From patent US9073830B2 (Hyundai Pharm Co., Ltd., priority 2011, dated 2015)

Legend:
[1] = target: T1, mouse 11β-HSD1 (Mus musculus, UniProt P50172); test: Enzyme activity analysis on mouse 11β-HSD1 (HTRF cortisol, liver microsomes); format: biochemical; details: second value of cell
T1 construct: 100 ug/ml human/mouse liver microsomes; from tissue; host or cells: mouse liver microsomes
Experimental: (§1) After culturing at 37° C. for 2 hours, 5 μl of cryptate-labeled anti-cortisol antibody and 5 μl of d2-labeled cortisol were added thereto. After further culturing at room temperature for 2 hours, a homogeneous time-resolved fluorescence (HTRF, Cisbio) signal was measured. From each analysis, based on a standard curve calculated using cortisols of several known concentrations, an amount of produced cortisol was tested.
(§2) While an amount of cortisol, produced without the compound, was used as a control, an inhibition percentage by the test compound, at each concentration, was calculated. By using an inhibition curve calculated by coordinates of inhibition percentage to test compound concentration, an IC50 value of the compound on 11β-HSD1 was obtained.

[2] = target: T2, human 11β-HSD1 (Homo sapiens, UniProt P28845); test: Enzyme activity analysis on human 11β-HSD1 (HTRF cortisol, liver microsomes); format: biochemical; details: first value of cell
T2 construct: 100 ug/ml human/mouse liver microsomes; from tissue; host or cells: human liver microsomes
T2 sequence (P28845 whole entry): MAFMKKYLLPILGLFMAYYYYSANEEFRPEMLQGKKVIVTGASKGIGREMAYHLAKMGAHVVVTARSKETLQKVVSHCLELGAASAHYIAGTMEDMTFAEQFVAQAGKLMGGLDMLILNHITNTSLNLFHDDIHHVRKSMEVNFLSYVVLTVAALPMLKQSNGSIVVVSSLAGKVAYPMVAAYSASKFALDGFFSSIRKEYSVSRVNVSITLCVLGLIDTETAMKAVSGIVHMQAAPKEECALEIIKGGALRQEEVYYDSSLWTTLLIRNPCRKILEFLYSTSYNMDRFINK
Experimental: as §1, §2

T1 sequence (P50172 whole entry): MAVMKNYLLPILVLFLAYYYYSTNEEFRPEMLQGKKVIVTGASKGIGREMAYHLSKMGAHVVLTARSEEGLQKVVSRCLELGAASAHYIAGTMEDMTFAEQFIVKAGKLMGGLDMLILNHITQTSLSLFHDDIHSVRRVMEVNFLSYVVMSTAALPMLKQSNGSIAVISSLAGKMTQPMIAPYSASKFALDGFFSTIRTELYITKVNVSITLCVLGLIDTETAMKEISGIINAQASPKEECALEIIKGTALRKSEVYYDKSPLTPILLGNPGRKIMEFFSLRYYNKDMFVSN

| SMILES | IC50 [1] [µM] | IC50 [2] [µM] |
| --- | --- | --- |
| CC(C)(NS(=O)(=O)c1c(F)cccc1F)C(=O)NC1C2CC3CC1CC(O)(C3)C2 (stereo not shown) [compound 74, N-(5-hydroxyadamantane-2-yl)-2-methyl-2-(2,6-difluorophenylsulfonamido)propanamide] | 0.305 | 0.079 |
| CC(C)(NS(=O)(=O)c1cccc2cccnc12)C(=O)NC1C2CC3CC1CC(O)(C3)C2 (stereo not shown) [compound 75, N-(5-hydroxyadamantane-2-yl)-2-methyl-2-(8-quinolinesulfonamido)propanamide] | 0.005 | 0.006 |
| Cc1ccc([N+](=O)[O-])cc1S(=O)(=O)NC(C)(C)C(=O)NC1C2CC3CC1CC(O)(C3)C2 (stereo not shown) [compound 76, N-(5-hydroxyadamantane-2-yl)-2-methyl-2-(2-methyl-5-nitrophenylsulfonamido)propanamide] | 2.08 | 0.146 |
| CC(C)(NS(=O)(=O)c1cccc([N+](=O)[O-])c1)C(=O)NC1C2CC3CC1CC(O)(C3)C2 (stereo not shown) [compound 77, N-(5-hydroxyadamantane-2-yl)-2-methyl-2-(3-nitrophenylsulfonamido)propanamide] | 0.575 | 0.492 |
| CC(C)(NS(=O)(=O)c1ccc([N+](=O)[O-])cc1)C(=O)NC1C2CC3CC1CC(O)(C3)C2 (stereo not shown) [compound 78, N-(5-hydroxyadamantane-2-yl)-2-methyl-2-(4-nitrophenylsulfonamido)propanamide] | 1.21 | 0.692 |
| CC(C)(NS(=O)(=O)c1ccc(Cl)cc1[N+](=O)[O-])C(=O)NC1C2CC3CC1CC(O)(C3)C2 (stereo not shown) [compound 79, N-(5-hydroxyadamantane-2-yl)-2-methyl-2-(4-chloro-2-nitrophenylsulfonamido)propanamide] | 0.797 | 0.083 |
| CC(C)(NS(=O)(=O)c1ccc(F)cc1Cl)C(=O)NC1C2CC3CC1CC(O)(C3)C2 (stereo not shown) [compound 80, N-(5-hydroxyadamantane-2-yl)-2-methyl-2-(4-fluoro-2-chlorophenylsulfonamido)propan amide] | 0.213 | 0.072 |
| CC(C)(NS(=O)(=O)c1ccc(Cl)cc1Cl)C(=O)NC1C2CC3CC1CC(O)(C3)C2 (stereo not shown) [compound 81, N-(5-hydroxyadamantane-2-yl)-2-methyl-2-(2,4-dichlorophenylsulfonamido)propanamide] | 0.221 | 0.03 |
| COc1ccc(S(=O)(=O)NC(C)(C)C(=O)NC2C3CC4CC2CC(C(N)=O)(C4)C3)cc1 (stereo not shown) [compound 86, N-4-(2-(4-methoxyphenylsulfonamido)-2-methylpropanamido)adamantane-1-carboxyamide] | > 2.5 | > 2.5 |
| CC(C)(NS(=O)(=O)c1ccc(Cl)cc1Cl)C(=O)NC1C2CC3CC1CC(C(N)=O)(C3)C2 (stereo not shown) [compound 88, N-4-(2-(2,4-dichlorophenylsulfonamido)-2-methylpropanamido)adamantane-1-carboxyamide] | 0.056 | 0.014 |
| Cc1cc(C)cc(S(=O)(=O)NC(C)(C)C(=O)NC2C3CC4CC2CC(C(N)=O)(C4)C3)c1 (stereo not shown) [compound 91, N-4-(2-(3,5-dimethylphenylsulfonamido)-2-methylpropanamido)adamantane-1-carboxyamide] | 0.107 | 0.016 |
| CC(C)(NS(=O)(=O)c1ccc(OC(F)F)cc1)C(=O)NC1C2CC3CC1CC(C(N)=O)(C3)C2 (stereo not shown) [compound 93, N-4-(2-(4-difluoromethoxyphenylsulfonamido)-2-methylpropanamido)adamantane-1-carboxyamide] | 0.571 | 0.153 |
| Cc1ccc(F)c(S(=O)(=O)NC(C)(C)C(=O)NC2C3CC4CC2CC(C(N)=O)(C4)C3)c1 (stereo not shown) [compound 94, N-4-(2-(2-fluoro-5-methylphenylsulfonamido)-2-methylpropanamido)adamantane-1-carboxyamide] | 0.123 | 0.013 |
| Cc1ccc(F)cc1S(=O)(=O)NC(C)(C)C(=O)NC1C2CC3CC1CC(C(N)=O)(C3)C2 (stereo not shown) [compound 95, N-4-(2-(2-methyl-5-fluorophenylsulfonamido)-2-methylpropanamido)adamantane-1-carboxyamide] | 0.144 | 0.013 |
| CC(C)(NS(=O)(=O)c1cccnc1Cl)C(=O)NC1C2CC3CC1CC(C(N)=O)(C3)C2 (stereo not shown) [compound 96, N-4-(2-(2-chloropyridine-3-sulfonamido)-2-methylpropanamido)adamantane-1-carboxyamide] | 0.289 | 0.223 |
| CC(C)(NS(=O)(=O)Cc1ccccc1Cl)C(=O)NC1C2CC3CC1CC(C(N)=O)(C3)C2 (stereo not shown) [compound 98, N-4-(2-((2-chlorophenyl)methylsulfonamido)-2-methylpropanamido)adamantane-1-carboxyamide] | > 2.5 | > 2.5 |
| CCCc1ccc(S(=O)(=O)NC(C)(C)C(=O)NC2C3CC4CC2CC(C(N)=O)(C4)C3)cc1 (stereo not shown) [compound 99, N-4-(2-(4-propylphenylsulfonamido)-2-methylpropanamido)adamantane-1-carboxyamide] | 0.124 | 0.047 |
| CC(C)(NS(=O)(=O)c1ccc(Br)cc1OC(F)(F)F)C(=O)NC1C2CC3CC1CC(C(N)=O)(C3)C2 (stereo not shown) [compound 100, N-4-(2-(2-trifluoromethoxy-4-bromophenylsulfonamido)-2-methylpropanamido)adamantane-1-carboxyamide] | 0.21 | 0.018 |
| CC(C)(NS(=O)(=O)c1ccc(F)cc1Br)C(=O)NC1C2CC3CC1CC(C(N)=O)(C3)C2 (stereo not shown) [compound 101, N-4-(2-(2-bromo-4-fluorophenylsulfonamido)-2-methylpropanamido)adamantane-1-carboxyamide] | 0.014 | 0.009 |
| CC(C)(NS(=O)(=O)c1cccc(Cl)c1F)C(=O)NC1C2CC3CC1CC(C(N)=O)(C3)C2 (stereo not shown) [compound 102, N-4-(2-(2-fluoro-3-chlorophenylsulfonamido)-2-methylpropanamido)adamantane-1-carboxyamide] | 0.037 | 0.02 |

Further lines, results first:

| IC50 [1] [µM] | IC50 [2] [µM] | SMILES |
| --- | --- | --- |
| 0.037 | 0.026 | Cc1ccc(S(=O)(=O)NC(C)(C)C(=O)NC2C3CC4CC2CC(C(N)=O)(C4)C3)cc1Cl (stereo not shown) [compound 103, N-4-(2-(3-chloro-4-methylphenylsulfonamido)-2-methylpropanamido)adamantane-1-carboxyamide] |
| 0.563 | 0.178 | CC(C)(NS(=O)(=O)c1cccc([N+](=O)[O-])c1)C(=O)NC1C2CC3CC1CC(C(N)=O)(C3)C2 (stereo not shown) [compound 107, N-4-(2-(3-nitrophenylsulfonamido)-2-methylpropanamido)adamantane-1-carboxyamide] |
| 1.24 | 0.045 | CC(C)(NS(=O)(=O)c1cc(C(F)(F)F)ccc1C(F)(F)F)C(=O)NC1C2CC3CC1CC(C(N)=O)(C3)C2 (stereo not shown) [compound 109, N-4-(2-(2,5-bistrifluoromethylphenylsulfonamido)-2-methylpropanamido)adamantane-1-carboxyamide] |
| 0.556 | 0.014 | CC(C)(NS(=O)(=O)c1cc(C(F)(F)F)ccc1Br)C(=O)NC1C2CC3CC1CC(C(N)=O)(C3)C2 (stereo not shown) [compound 110, N-4-(2-(2-bromo-5-trifluoromethylphenylsulfonamido)-2-methylpropanamido)adamantane-1-carboxyamide] |
| 2.46 | 1.3 | COc1ccc(S(=O)(=O)NC(C)(C)C(=O)NC2C3CC4CC2CC(C(N)=O)(C4)C3)cc1[N+](=O)[O-] (stereo not shown) [compound 111, N-4-(2-(3-nitro-4-methoxyphenylsulfonamido)-2-methylpropanamido)adamantane-1-carboxyamide] |
| 0.011 | 0.024 | CC(C)(NS(=O)(=O)c1c(Cl)cc(Cl)cc1Cl)C(=O)NC1C2CC3CC1CC(C(N)=O)(C3)C2 (stereo not shown) [compound 112, N-4-(2-(2,4,6-trichlorophenylsulfonamido)-2-methylpropanamido)adamantane-1-carboxy amide] |
| 0.215 | 0.208 | CC(C)(NS(=O)(=O)c1ccc([N+](=O)[O-])c(C(F)(F)F)c1)C(=O)NC1C2CC3CC1CC(C(N)=O)(C3)C2 (stereo not shown) [compound 113, N-4-(2-(3-trifluoromethyl-4-nitrophenylsulfonamido)-2-methylpropanamido)adamantane-1-carboxyamide] |
| 0.207 | 0.093 | Cc1ccc(S(=O)(=O)NC(C)(C)C(=O)NC2C3CC4CC2CC(C(N)=O)(C4)C3)cc1[N+](=O)[O-] (stereo not shown) [compound 114, N-4-(2-(3-nitro-4-methylphenylsulfonamido)-2-methylpropanamido)adamantane-1-carboxyamide] |
| 0.456 | 0.235 | COc1ccc(S(=O)(=O)NC(C)(C)C(=O)NC2C3CC4CC2CC(C(N)=O)(C4)C3)cc1F (stereo not shown) [compound 115, N-4-(2-(3-fluoro-4-methoxyphenylsulfonamido)-2-methylpropanamido)adamantane-1-carboxyamide] |
| 0.122 | 0.035 | CC(C)(NS(=O)(=O)c1ccc(F)c(F)c1F)C(=O)NC1C2CC3CC1CC(C(N)=O)(C3)C2 (stereo not shown) [compound 116, N-4-(2-(2,3,4-trifluorophenylsulfonamido)-2-methylpropanamido)adamantane-1-carboxy amide] |
| 0.224 | 0.116 | CC(C)(NS(=O)(=O)c1cc(F)c(F)c(F)c1)C(=O)NC1C2CC3CC1CC(C(N)=O)(C3)C2 (stereo not shown) [compound 118, N-4-(2-(3,4,5-trifluorophenylsulfonamido)-2-methylpropanamido)adamantane-1-carboxy amide] |
| 0.453 | 0.051 | CC(C)(NS(=O)(=O)c1cc(F)ccc1F)C(=O)NC1C2CC3CC1CC(C(N)=O)(C3)C2 (stereo not shown) [compound 120] |
